Columns and labels:
[1] = tested on: human dermal fibroblast cell line (ATCC PCS-201-012); assay: Scratch assay (in-vitro wound healing model) in human dermal fibroblasts (Example 5); assay type: cell-based; settings: 10 μM, after 24 hours, control albumin in PBS
Procedure: (§1) A commercial human dermal fibroblast cell line (ATCC PCS-201-012) was cultured in Dulbecco's modified Eagle's medium according to the method described by Vuong et al2.
ATCC cells were seeded in wells with 2 mL culture media supplemented with 1, 2 and 4 μM Lipid composition A. Control was albumin in PBS. At ˜90-100% confluency, a scratch was created, and wells were thereafter photographed at several time points up to 24 hours. The migration of cells into the scratch/closure of wound over time was examined in light microscopy and images were taken. The scratch/wound closure rate was measured by % confluency in scratch opening (the higher values the better closure of wound).
Cells were seeded in wells with 2 mL culture media supplemented with 10 μM Lipid composition B (6 replicates). Control was albumin in PBS. At ˜90-100% confluency, a scratch was created, and wells were thereafter photographed at several time points up to 24 hours. […]
FIG. 29 provides the effect of Lipid composition B on closure rate of scratch. […] Cells were then scratched and cell migration into wound was followed at different time points (0 and 24 hours shown), using Fiji/ImageJ software, as illustrated in figure A. Scratch size was analyzed as mean percentage decline (calculated from each well's original size at 0 hours to size measured at 24 hours (n=6, results presented in figure B).

ATCC human skin cells = assay: Content of C26:6n-3 in ATCC human skin cells after supplementation of the culture medium (Example 5, 1B); assay type: cell-based; settings: media with 10 and 20 μM for 4 days; increase from 0.7; p=0.001 (ANOVA)
Procedure: as §1
ATCC cells were cultivated in a media supplemented with 10 and 20 μM Lipid composition B for 4 days before harvesting for determination of fatty acid composition. It was made a pooled sample of three replicates per group prior to lipid extraction by the method by Folch et al1.

ATCC cells = assay: Proliferation assay in ATCC human dermal fibroblasts (Example 5); assay type: cell-based; settings: incubation until about 50% confluency, albumin controls
Procedure: as §1
The proliferation assay measures the density/number of cells in culture by fluorescence staining of nucleic acids.
FIG. 28 provides the measurement of cell proliferation after incubation with Lipid composition B until about 50% confluency. Results are presented as the mean±SEM (n=4). The asterisks (*) indicate significant difference between groups. Control 1 and 2 represent albumin equivalent to the albumin concentration in the 20 µM Lipid composition B substrate.

[2] = tested on: skin cells (keratocytes) from salmon shells; assay: Cellular content of C26:6n-3 in primary skin cells (keratocytes) from Atlantic salmon (Example 5, 2); assay type: cell-based; settings: 20 µM group; 0% in the control group
Procedure: Primary cell cultures of skin cells (keratocytes) from salmon shells were isolated from freshwater Atlantic salmon. The shells were carefully placed in plate wells and incubated at 13° C. in growth media (L-15) supplemented with 10 μM or 20 μM of the Lipid composition B (26:6n-3) or 25 ng/ml fibroblast growth factor (FGF) as a positive control. Negative control was albumin in PBS.

[3] = tested on: skin cells (keratocytes) from salmon shells; assay: Cell migration from salmon shells (Example 5, 2); assay type: cell-based, Atlantic salmon; set-up: cell migration from salmon shells, first time point: dose or concentration left out as unconfirmed
Procedure: Primary cell cultures of skin cells (keratocytes) from salmon shells were isolated from freshwater Atlantic salmon. […] Negative control was albumin in PBS.
The second day after isolation of shells, all wells with the different treatments were inspected under microscope and images taken.
Salmon shells were plucked from freshwater salmon and placed in wells with culture medium, incubated at 13° C. without CO2 and inspected for cell migration the following days. […] Control was albumin in PBS. (n=6). The scale of the y—axis represents no cell migration (0%) to cell migration from all shells (100%). Different letters denote significant differences (p≤0,05).

content of C26:6n-3 in ATCC human skin cells (ATCC human skin cells): 5.5 % of total FAs
cellular content of the C26:6n-3 fatty acid in salmon skin cells [2]: 1.4%
SMILES: CC/C=C\C/C=C\C/C=C\C/C=C\C/C=C\C/C=C\CCCCCCC(=O)O [Lipid composition B, C26:6n-3]
wound closure rate by reduced size of wound diameter compared to control [1]: tendencies to increased wound closure rate
cell count (proliferation) compared to controls (ATCC cells): significantly higher cell count
cell migration in salmon skin cell culture relative to control ([3]; 10 µM): significantly increased cell migration
cell migration from salmon shells, last time point ([3]; low dose (10 µM)): most effect on cell migration
cell migration from salmon shells, first time point ([3]; relative to albumin control): similar, immediate increased cell migration effect as the FGF

— patent US20260014109A1, “VERY LONG CHAIN FATTY ACIDS FOR TREATMENT AND ALLEVIATION OF DISEASES” (EPAX NORWAY AS, priority 2019, published 2026)
